Converted amounts (≈) assume the structure as drawn.
Key:
Assay in all cases: minimum inhibitory concentration (MIC), microtiter broth dilution
Assay type in all cases: cell-based
[1] = tested on: Aspergillus brasiliensis ATCC 16404; settings: Table 2, ppm per product, stock solutions in alcohol, 28° C. for 5 days; for MIC: Aspergillus brasiliensis, ATCC16404, 120 h
Experimental: (§1) The following compositions were formulated and tested for antimicrobial efficacy. In particular, the compositions were tested for minimum inhibitory concentration (MIC).
(§2) Staphylococcus aureus ATCC 6538, Pseudomonas aeruginosa ATCC 9027, Klebsiella pneumonia ATCC 4352, Burkholderia cepacia ATCC 25416, Enterobacter gergoviae ATCC 33028, Candida albicans ATCC 10231, Aspergillus brasiliensis ATCC 16404, and 2 Penicillium sp. were revived from refrigerated slants and plated on TSA plates for bacteria, SDA plates for yeast, and PDA plates for mold. The broth media used for MIC determination on microtiter plates were TSB for bacteria and SDB for fungi.
(§3) All prepared solutions were considered as products and were tested at the concentration starting at 10,000 ppm per product. Samples were diluted with 2-fold serial dilution into the appropriate broth media on microtiter plates. The bacterial inoculum at concentration of 1×10^6 CFUs/mL and fungal inoculum at concentration of 1×10^5 cells or spores/mL were suspended in regular strength broth and added to the wells in 1:1 ratio to the sample/medium mixtures on microtiter plates. The final concentration of bacteria was 5×10^5 CFUs/mL; the final concentration of fungi was 5×10^4 cells or spores/mL. Bacterial plates were incubated at 35° C. for 2 days and fungal plates were incubated at 28° C. for 5 days before reading results.
(§4) In this example, two compositions made according to the present disclosure were tested for minimum inhibitory concentration (MIC) as described in Example No. 1. In this example, the first sample tested was the same as Sample No. 4 described above in Example No. 1. The second sample (Sample No. 8) was identical to Sample No. 4 except 1,3 propanediol was replaced with 1,5 pentanediol. […]

[2] = tested on: Candida albicans ATCC 10231; settings: Table 2, ppm per product, stock solutions in alcohol, 28° C. for 5 days; for MIC: Candida albicans, ATCC10231, 120 h
Experimental: as §1, §2, §3, §4

[3] = tested on: Pseudomonas aeruginosa ATCC 9027; settings: Table 2, ppm per product, stock solutions in alcohol, 35° C. for 2 days; for MIC: Pseudomonas aeruginosa, ATCC9027, 48 h, read-out: minimum inhibitory concentration (MIC), Ps. aeruginosa
Experimental: as §1, §2, §3, §4

[4] = tested on: Staphylococcus aureus ATCC 6538; settings: Table 2, ppm per product, stock solutions in alcohol, 35° C. for 2 days; for MIC: Staphylococcus aureus, ATCC6538, 48 h, read-out: minimum inhibitory concentration (MIC), S. aureus
Experimental: as §1, §2, §3, §4

[5] = tested on: Burkholderia cepacia ATCC 25416; settings: Table 2, ppm per product, stock solutions in alcohol, 35° C. for 2 days; for MIC: Burkholderia cepacia, ATCC25416, 48 h, read-out: minimum inhibitory concentration (MIC), B. cepacia
Experimental: as §1, §2, §3

[6] = tested on: Enterobacter gergoviae ATCC 33028; settings: Table 2, ppm per product, stock solutions in alcohol, 35° C. for 2 days; for MIC: Pluralibacter gergoviae, ATCC33028, 48 h, read-out: minimum inhibitory concentration (MIC), E. gergoviae
Experimental: as §1, §2, §3

[7] = tested on: Klebsiella pneumonia ATCC 4352; settings: Table 2, ppm per product, stock solutions in alcohol, 35° C. for 2 days; for MIC: Klebsiella pneumoniae, ATCC4352, 48 h, read-out: minimum inhibitory concentration (MIC), K. pneumonia
Experimental: as §1, §2, §3

[8] = tested on: Penicillium sp.; settings: Table 2, ppm per product, stock solutions in alcohol, 28° C. for 5 days; for MIC: Penicillium, 120 h
Experimental: as §1, §2, §3

MIC [1] [µg/mL]	MIC [2] [µg/mL]	MIC [3] [µg/mL]	MIC [4] [µg/mL]	MIC [5] [µg/mL]	MIC [6] [µg/mL]	MIC [7] [µg/mL]	MIC [8] [µg/mL]	SMILES	minimum inhibitory concentration (MIC), A. brasiliensis [1]	minimum inhibitory concentration (MIC), C. albicans [2]	minimum inhibitory concentration (MIC), Ps. aeruginosa [3]	minimum inhibitory concentration (MIC), S. aureus [4]	minimum inhibitory concentration (MIC), B. cepacia [5]	minimum inhibitory concentration (MIC), E. gergoviae [6]	minimum inhibitory concentration (MIC), K. pneumonia [7]	minimum inhibitory concentration (MIC), Penicillium sp. [8]
> 10000	2500 (≈ 17.3 mM)	10000 (≈ 69.3 mM)	> 10000	10000 (≈ 69.3 mM)	> 10000	> 10000	7500 (≈ 52 mM)	CCCCCCCC(=O)O [2.5% Octanoic Acid, Octanoic Acid]	–	–	–	–	–	–	–	–
–	–	–	–	–	–	–	–	OCCCO [50% 1,3-Propanediol, 1,3-Propanediol]	>10,000 ppm	10,000 ppm	10,000 ppm	>10,000 ppm	10,000 ppm	>10,000 ppm	>10,000 ppm	>10,000 ppm
5000 (≈ 32.9 mM)	2500 (≈ 16.4 mM)	5000 (≈ 32.9 mM)	10000 (≈ 65.7 mM)	5000 (≈ 32.9 mM)	10000 (≈ 65.7 mM)	10000 (≈ 65.7 mM)	2500 (≈ 16.4 mM)	COc1cc(C=O)ccc1O [20% Vanillin, Vanillin]	–	–	–	–	–	–	–	–

Source: US9987209B2, “Multi-functional composition for cosmetic formulations” (Arch Chemicals, Inc., priority 2013, dated 2018)
